# In paper PMC5503536, “Development of [^11C]vemurafenib employing a carbon-11 carbonylative Stille coupling and preliminary evaluation in mice bearing melanoma tumor xenografts” (Oncotarget, 2017):
# Experiments:
# [1] = parameters: method as in PMID 23060265; details: phase III, vs patients treated with dacarbazine; cited from earlier work
# [2] = system: P-gp; details: cited from earlier work
# [3] = system: BRAF^V600E cells; parameters: method as in PMID 20149136; details: cited from earlier work
# [4] = system: BRAF^wt cells; parameters: method as in PMID 20149136; details: cited from earlier work
# [5] = system: MeWo (BRAF^wt) cells; test: Cell titer blue cell viability assay, MeWo; assay type: cell-based; details: 120 h incubation, CellTiter-Blue
# Description: (§1) Having a reliable synthesis route to obtain [^11C]vemurafenib, cell lines had to be selected to evaluate the tumor targeting potential of [^11C]vemurafenib. Two melanoma cell lines were selected based on reported mutational status of BRAF: Colo829 (BRAF^V600E) and MeWo (BRAF^wt). Both cell lines were analyzed by Fluorescence Activated Cell Sorting (FACS) using a BRAF antibody (recognizing both wild-type and BRAF^V600E) and a BRAF^V600E selective antibody for assessment of target expression (Figure 2A/2B). […] Furthermore, both the cells as well as the xenografts derived from the cell lines were sequenced to confirm the expression of BRAF and the mutational status thereof. […] (V600E) and MeWo cells and xenografts were wild-type. […] So while the BRAF^V600E kinase is sensitive to vemurafenib treatment, it appears that a certain level of mutated protein expression is required for this sensitivity, as both cell lines expressed the mutation to an extent, as determined by FACS. In contrast sequencing only detected the V600E mutation in the Colo829, indicative of higher expression. […]
# (§2) Vemurafenib stock solutions of 1 mM in DMSO were prepared and diluted with PBS to a concentration of 10 μM (1% DMSO). […] Finally the fluorescence was measured using a TriStar^2 LB942 plate reader (Berthold Technologies, Bad Wildbad, Germany). […]
# [6] = system: BCRP; details: cited from earlier work
# [7] = system: Colo829 (BRAF^V600E) cells; test: Cell titer blue cell viability assay, Colo829; assay type: cell-based; details: Homo sapiens, COLO-829
# Description: as §1, §2
# [8] = parameters: method as in PMID 23060265; details: phase I trial with 32 patients; cited from earlier work
# [9] = system: Colo829 xenograft tumor sections; test: Autoradiography on Colo829 xenograft sections; assay type: binding; details: co-incubation with unmodified vemurafenib 100 μM, tracer only = 100%
# Description: (§3) To determine the binding potential of [^11C]vemurafenib to tumor tissue expressing BRAF^wt or BRAF^V600E, autoradiography studies on xenograft sections and in vitro cellular uptake studies were performed. Sections of tumor xenografts derived from the aforementioned cell lines were incubated with [^11C]vemurafenib.
# (§4) Colo829 and MeWo xenograft sections (10 μm thickness) were pre-treated three times with 5 mM Tris-HCl buffer (pH 7.4) for 5 min.. Sections were dried under a gentle air flow before incubation for 30 min. with [^11C]vemurafenib and the following conditions: (A) 5 mM Tris-HCl, pH 7.4; (B) 5 mM Tris-HCl, pH 7.4 and isotopically unmodified vemurafenib at 100 μM (n = 4 for each incubation condition). Washing was performed using Tris-HCl (3×) followed by dipping in ice cold water. After drying in an air stream, tumor sections were exposed to a phosphor-imaging screen for 15 min. Data was quantified as average signal intensity per surface area and were represented relative to the tracer only (A) conditions, which was set at 100%. Error bars indicate standard deviations. Quantification of binding was performed using ImageQuantTL v8.1.0.0 (GE Healthcare, Buckinghamshire, UK) by drawing regions of interest around the full tumor sections.
# [10] = Ex vivo biodistribution, statements made for both xenograft lines; assay type: in vivo, athymic nu/nu mice
# Description: (§5) To evaluate the in vivo tumor targeting potential an ex vivo biodistribution study was performed in mice bearing the aforementioned melanoma xenografts. Tumor bearing mice were injected with 20–25 MBq of [^11C]vemurafenib (corresponding to 0.36–0.45 nmol of vemurafenib) and sacrificed 60 minutes post injection. Subsequently organs of interest were excised and counted for activity.
# (§6) Nude mice (Athymic nu/nu, Harlan, Horst, The Netherlands) bearing two tumors (obtained by injection of MeWo or Colo829 cells, 2*10^6 per site) of the same xenograft line on their left and right flank, received an injection of 25 MBq [^11C]vemurafenib (corresponding to 0.45 nmol of vemurafenib) via the ocular plexus. The mice were sacrificed and dissected at 60 min. post-injection. Blood, urine, skin, left tumor, right tumor, muscle, heart, colon, lung, liver, kidney and brain were collected, weighed and counted for radioactivity in a gamma counter (Wallac 1210 Compugamma, PerkinElmer, Waltham, MA, USA). Biodistribution data are expressed as percentage of injected dose per gram (%ID/g) of tissue for each organ.
# [11] = Plasma metabolite analysis (in vivo stability); parameters: species or system athymic nu/nu mice; details: for Parent (%): plasma, i.v., non-tumor bearing mice
# Description: The cartridge was washed with 5 mL of H2O to collect polar radioactive metabolites.
# [12] = system: MeWo xenograft tumor sections; test: Autoradiography on MeWo xenograft sections; assay type: binding; details: co-incubation with unmodified vemurafenib 100 μM, tracer only = 100%
# Description: as §3, §4
# [13] = system: MeWo cells; test: In vitro cell uptake, MeWo; assay type: cell-based
# Description: (§7) To determine binding of [^11C]vemurafenib in vitro to intact tumor cells a cell uptake study was performed by incubation of tumor cells in suspension with [^11C]vemurafenib, followed by removal of the supernatant and washing of the cells with PBS (phosphate buffered saline). […] While in vitro experiments can be of great value to predict tracer target binding, the experiments exclude many of the factors observed in vivo, for PET-tracer validation. Therefore in vivo experiments are of the utmost importance for PET-tracer validation. […]
# (§8) Colo829 or MeWo cells (1*10^6) suspended in growth medium were incubated in triplicate in centrifuge tubes at 37°C with 1 MBq of [^11C]vemurafenib (corresponding to 0.02 nmol of vemurafenib) for 30 min. […] All fractions (cells, supernatant and PBS) were counted for radioactivity using a gamma counter (Wallac 1210 Compugamma, PerkinElmer, Waltham, MA, USA) and the cell bound/internalized percentage of [^11C]vemurafenib was determined as the fraction of activity in the cell pellet divided by the total activity (cells, supernatant and PBS) corrected for background (medium only) and vehicle treated conditions.
# [14] = system: MeWo (BRAF^wt) xenografts; test: Ex vivo biodistribution, MeWo xenograft bearing mice; assay type: in vivo, athymic nu/nu mice; details: 60 min p.i.
# Description: as §5, §6
# [15] = system: Colo829 (BRAF^V600E) xenografts; test: Ex vivo biodistribution, Colo829 xenograft bearing mice; assay type: in vivo, athymic nu/nu mice; details: 60 min p.i.
# Description: as §5, §6
# [16] = system: Colo829 cells; test: In vitro cell uptake, Colo829; assay type: cell-based
# Description: as §7, §8
smiles,measurement,setting,value
"CCCS(=O)(=O)Nc1ccc(F)c(C(=O)c2c[nH]c3ncc(-c4ccc(Cl)cc4)cc23)c1F [vemurafenib, Vemurafenib]",reduction in the risk of death,[1],63%
same,substrate for ABC-cassette efflux transporter P-gp,[2],substrate
same,effect on ERK1/2 phosphorylation,[3],abolished ERK1/2 phosphorylation
same,effect on ERK1/2 and MEK phosphorylation,[4],rapid phosphorylation of ERK1/2 and MEK
same,"IC50, cell viability",[5],no IC50 was observed
same,substrate for ABC-cassette efflux transporter BCRP,[6],substrate
same,IC50,"[7]; Colo829 (BRAF^V600E), 120 h incubation, CellTiter-Blue",130 nM
same,EC50,"[7]; printed in the picture beside the fitted curve, apparently Colo829, read-out: EC50, cell viability curve (Figure 2C)",130 nM
same,unconfirmed overall response rate,[8],81%
CCCS(=O)(=O)Nc1ccc(F)c([11C](=O)c2c[nH]c3ncc(-c4ccc(Cl)cc4)cc23)c1F [[^11C]vemurafenib],binding when compared to unblocked conditions,[9],51.2 ± 11.2%
same,blood levels,"[10]; after 60 minutes, xenograft bearing mice",2–3 %ID/g
same,"tumor-to-tissue ratios (muscle, blood, skin), all cases","[10]; both xenograft lines, 60 min p.i.",≤ 1
same,intact tracer in plasma (stability),[11]; 45 minutes after injection,> 95%
same,Parent (%),[11]; 15 min p.i.,97.8 ± 1.9%
same,Parent (%),[11]; 45 min p.i.,95.9 ± 4.4%
same,binding when compared to unblocked conditions,[12],65.1 ± 3.1%
same,cell bound + internalized fraction,"[13]; 30 min, 37°C, unblocked",61.6 ± 8.2%
same,cell bound + internalized fraction after pretreatment with unmodified vemurafenib,[13]; blocked,20.6 ± 0.4%
same,Tumor-to-blood ratio,[14]; MeWo (BRAF^WT),0.29 ± 0.19
same,Tumor-to-muscle ratio,[14]; MeWo (BRAF^WT),0.72 ± 0.21
same,Tumor-to-skin ratio,[14]; MeWo (BRAF^WT),0.89 ± 0.28
same,Tumor uptake,"[14]; MeWo tumors, 20–25 MBq",0.49 ± 0.29 %ID/g
same,Tumor-to-blood ratio,[15]; Colo829 (BRAF^V600E),0.27 ± 0.06
same,Tumor-to-muscle ratio,[15]; Colo829 (BRAF^V600E),0.78 ± 0.18
same,Tumor-to-skin ratio,[15]; Colo829 (BRAF^V600E),0.90 ± 0.19
same,Tumor uptake,"[15]; Colo829 tumors, 20–25 MBq",0.87 ± 0.14 ID/g
same,cell bound + internalized fraction,"[16]; 30 min, 37°C, unblocked",74.3 ± 1.5%
same,cell bound + internalized fraction after pretreatment with unmodified vemurafenib,[16]; blocked,17.0 ± 2.3%
